Measured values: patent US9701556B1, “Compositions, methods, and systems for reducing contamination” (priority 2004, dated 2017)
Several values for one entry are separate records, joined by “and”; a condition that tells them apart may be missing. Equal entries are not always repeated.

Legend:
[1] = Treatment of sulfides in municipal wastewater with ferric chelants and hydrogen peroxide; conditions: for sulfide reduction after 15 minutes: 2.5:1.0 peroxide to sulfide, 105.8 ppm hydrogen peroxide, 20 ppm chelant where added, peroxide alone averaged; for sulfide treatment after 15 minutes: 37.8 ppm hydrogen peroxide, 12 ppm chelant where added; for Percentage of Sulfide Treated, Dose 1 12 ppm Chelant 37.8 ppm H2O2 / Percentage of Sulfide Treated, Dose 2 6 ppm Chelant 37.8 ppm H2O2 / Percentage of Sulfide Treated, Dose 1 20 ppm Chelant 105.8 ppm H2O2 / Percentage of Sulfide Treated, Dose 2 10 ppm Chelant 105.8 ppm H2O2: after 30 minutes; for Percentage of Sulfide Treated, Dose 1 12 ppm Chelant 37.8 ppm H2O2 / Percentage of Sulfide Treated, Dose 2 6 ppm Chelant 37.8 ppm H2O2: 1.5:1.0 ratio of peroxide to sulfide; for Percentage of Sulfide Treated, Dose 1 20 ppm Chelant 105.8 ppm H2O2 / Percentage of Sulfide Treated, Dose 2 10 ppm Chelant 105.8 ppm H2O2: 2.5:1.0 ratio of peroxide to sulfide; for sulfide treatment compared with hydrogen peroxide alone, in words: over 30 minutes of treatment; for Sulfide Remaining, Dose 1 12 ppm Chelant / Sulfide Remaining, Dose 2 6 ppm Chelant: 37.8 ppm H2O2, start 25.4 ppm sulfide; for Sulfide Remaining, Dose 1 20 ppm Chelant / Sulfide Remaining, Dose 2 10 ppm Chelant: 105.8 ppm H2O2, start 42.3 ppm sulfide
[2] = Treatment of sulfides in municipal wastewater with ferric chelants and ozone; conditions: 4 ppm ferric chelant where added; for Overall total percentage of sulfide reduction: ozone; for sulfide remaining: ozone at ~13.4 ppm
[3] = tested on: heterotrophic bacteria; assay: Disinfection of wastewater with chelated iron compounds, total heterotrophic bacteria counts; assay type: cell-based; conditions: for Test 1 CFUs/ml, 19.8 ppm H2O2 6 ppm Fe-Chelant / Test 2 CFUs/ml, 39.6 ppm H2O2 12 ppm Fe-Chelant / Test 3 CFUs/ml, 12 ppm Fe-Chelant: 30 minutes, raw average 18,188 CFUs; for Test 3 CFUs/ml, 12 ppm Fe-Chelant: chelant alone, no H2O2; for disinfection effect, in words: compared with hydrogen peroxide alone
Method: A 10 gallon sample of wastewater from the Massaponax Wastewater Plant was collected and allowed to sit undisturbed for thirty minutes. The clarified supernatant was then pored off of the top of the settled solids within the sample. The supernatant was then mixed and four samples were collected to determine untreated heterotrophic bacteria counts. […] were dissolved in distilled water at 0.4334M. Ferric chloride was added in amounts to achieve saturation of chelant sites on the respective chelants. […] Twenty individual liter samples of supernatant were then decanted from the well-mixed wastewater sample for testing. Four chelated iron products with peroxide were tested at two test concentrations and compared to samples receiving peroxide only and iron chelate only. […] Individual samples were dosed with the respective additives, mixed with a magnetic stir bar and allowed to react for 30 minutes. Samples were then decanted to sterile sample containers containing sodium thiosulfate to stop the oxidation process and preserve the sample. Samples were then placed in a refrigerator until all samples were finished. Samples were packaged in a standard cooler with ice packs and sent via overnite delivery to ProChem Labs in Lynchburg, Va. for analysis for total heterotrophic bacteria counts.

[4] = cited from earlier work
[5] = tested on: Fecal Coliform; assay: Disinfection of wastewater, fecal coliform count; assay type: cell-based; conditions: 50 microliters 35% H2O2 (with or without 50 microliters Fe-GLC), after twenty minutes; control 2200
[6] = Comparative treatment of 2,4-D in water, GC analysis; conditions: after four hours
[7] = Series One, contact time 5 minutes, listed as Ferric NTA
[8] = Series Two, 20 ppm chelant, no H2O2, start 42.3 ppm sulfide, contact time 30 minutes
[9] = Series Two, contact time 5 minutes
[10] = Series Two, contact time 15 minutes
[11] = Series Two, contact time 30 minutes
[12] = start 13.70, contact time 5 minutes
[13] = start 13.70, contact time 10 minutes
[14] = start 13.70, contact time 20 minutes
[15] = Series One, contact time 5 minutes
[16] = Series One, contact time 15 minutes
[17] = Series One, contact time 30 minutes
[18] = Series One, no H2O2, start 25.4 ppm sulfide, contact time 30 minutes

| Molecule | Percentage of Sulfide Treated, Dose 1 12 ppm Chelant 37.8 ppm H2O2 [1] | Percentage of Sulfide Treated, Dose 2 6 ppm Chelant 37.8 ppm H2O2 [1] | Percentage of Sulfide Treated, Dose 1 20 ppm Chelant 105.8 ppm H2O2 [1] | Percentage of Sulfide Treated, Dose 2 10 ppm Chelant 105.8 ppm H2O2 [1] | sulfide treatment compared with hydrogen peroxide alone, in words [1] | Overall total percentage of sulfide reduction [2] | Test 1 CFUs/ml, 19.8 ppm H2O2 6 ppm Fe-Chelant [3] | Test 2 CFUs/ml, 39.6 ppm H2O2 12 ppm Fe-Chelant [3] | Test 3 CFUs/ml, 12 ppm Fe-Chelant [3] | disinfection effect, in words [3] | Sulfide Remaining, Dose 4 Chelant Only [1, 8] | Sulfide Remaining, Dose 1 20 ppm Chelant [1, 9] | Sulfide Remaining, Dose 2 10 ppm Chelant [1, 9] | Sulfide Remaining, Dose 1 20 ppm Chelant [1, 10] | Sulfide Remaining, Dose 2 10 ppm Chelant [1, 10] | Sulfide Remaining, Dose 1 20 ppm Chelant [1, 11] | Sulfide Remaining, Dose 2 10 ppm Chelant [1, 11] | Sulfide Remaining, Dose 1 12 ppm Chelant [1, 15] | Sulfide Remaining, Dose 2 6 ppm Chelant [1, 15] | Sulfide Remaining, Dose 1 12 ppm Chelant [1, 16] | further results |
| --- | --- | --- | --- | --- | --- | --- | --- | --- | --- | --- | --- | --- | --- | --- | --- | --- | --- | --- | --- | --- | --- |
| O=C([O-])CN(CCN(CC(=O)[O-])CC(=O)[O-])CC(=O)[O-].[Fe+3] [Fe-EDTA] | 68.5 | 64.2 | 87.5 | 83.7 | noticeably better | 64% | 360 CFUs/ml | 59 CFUs/ml | 18,200 CFUs/ml | very little effect on viable cells beyond that exhibited by hydrogen peroxide alone | – | – | – | – | – | – | – | – | – | – | sulfide reduction after 15 minutes [1]: 60%; sulfide treatment after 15 minutes [1]: 61%; Overall total percentage of sulfide reduction ([2]; listed as ferric EDTA): 64% |
| O=C([O-])CN(CCO)CC(=O)[O-].[Fe+3] [Fe-HEIDA] | 44.1 | 41.3 | 69.5 | 66.9 | did not perform well | 60% | 1350 CFUs/ml | 84 CFUs/ml | 16,700 CFUs/ml | very little effect on viable cells beyond that exhibited by hydrogen peroxide alone | – | – | – | – | – | – | – | – | – | – | Overall total percentage of sulfide reduction ([2]; listed as ferric HEIDA): 60% |
| O=C([O-])CN(CC(=O)[O-])CC(=O)[O-].[Fe+3] [Fe-NTA] | 78.3 | 68.9 | 93.4 | 90.0 | noticeably better | 91% | 370 CFUs/ml | 75 CFUs/ml | 18,300 CFUs/ml | very little effect on viable cells beyond that exhibited by hydrogen peroxide alone | 41.0 ppm | 23.3 ppm | 26.7 ppm | 12.6 ppm | 16.3 ppm | 2.8 ppm | 4.2 ppm | – | – | – | sulfide reduction after 15 minutes [1]: 70.2%; sulfide treatment after 15 minutes [1]: 73%; Sulfide Remaining, Dose 1 12 ppm Chelant [1, 7]: 15.2 ppm and 20.0 ppm; Sulfide Remaining, Dose 2 6 ppm Chelant [1, 7]: 15.9 ppm and 20.3 ppm; Sulfide Remaining, Dose 2 6 ppm Chelant ([1]; Series One, contact time 15 minutes, listed as Ferric NTA): 12.6 ppm and 16.4 ppm; Sulfide Remaining, Dose 2 6 ppm Chelant ([1]; Series One, contact time 30 minutes, listed as Ferric NTA): 7.9 ppm and 14.9 ppm; Sulfide Remaining, Dose 4 Chelant Only ([1]; Series One, no H2O2, start 25.4 ppm sulfide, contact time 30 minutes, listed as Ferric NTA): 24.6 ppm and 25.2 ppm; sulfide remaining [2, 12]: 3.40 ppm; sulfide remaining [2, 13]: 1.90 ppm; sulfide remaining [2, 14]: 1.30 ppm; Overall total percentage of sulfide reduction ([2]; listed as ferric NTA): 91% |
| O=C([O-])CC(O)(CC(=O)[O-])C(=O)[O-].[Fe+3] [Ferric Citrate] | 58.7 | 51.2 | 66.2 | 69.5 | – | – | – | – | – | – | 42.0 ppm | 30.1 ppm | 29.9 ppm | 19.6 ppm | 20.2 ppm | 14.3 ppm | 12.9 ppm | 17.8 ppm | 18.1 ppm | 14.1 ppm | Sulfide Remaining, Dose 2 6 ppm Chelant [1, 16]: 15.8 ppm; Sulfide Remaining, Dose 1 12 ppm Chelant [1, 17]: 10.5 ppm; Sulfide Remaining, Dose 2 6 ppm Chelant [1, 17]: 12.4 ppm; Sulfide Remaining, Dose 4 Chelant Only [1, 18]: 25.0 ppm |
| O=[O+][O-] [Ozone only, Ozone] | – | – | – | – | – | 46% | – | – | – | – | – | – | – | – | – | – | – | – | – | – | sulfide remaining [2, 12]: 8.05 ppm; sulfide remaining [2, 13]: 7.50 ppm; sulfide remaining [2, 14]: 7.40 ppm |
| O=C([O-])[C@H](O)[C@@H](O)[C@H](O)[C@H](O)CO.[Na+] [Sodium gluconate] | – | – | – | – | – | – | – | – | – | – | – | – | – | – | – | – | – | – | – | – | readily biodegradable ([4]; after 2 days): 98%; solubility in water [4]: very soluble in water |
| Ferric Ascorbate | 62.2 | 59.0 | 74.5 | 71.9 | some modest improvement over hydrogen peroxide treatment alone | – | – | – | – | – | 41.8 ppm | 26.9 ppm | 27.2 ppm | 17.7 ppm | 19.7 ppm | 10.8 ppm | 11.9 ppm | 16.6 ppm | 17.2 ppm | 11.8 ppm | Sulfide Remaining, Dose 2 6 ppm Chelant [1, 16]: 12.4 ppm; Sulfide Remaining, Dose 1 12 ppm Chelant [1, 17]: 9.6 ppm; Sulfide Remaining, Dose 2 6 ppm Chelant [1, 17]: 10.4 ppm; Sulfide Remaining, Dose 4 Chelant Only [1, 18]: 24.6 ppm |
| Ferric Gallate | 59.1 | 55.9 | 68.7 | 69.0 | did not perform well overall | – | – | – | – | – | 43.0 ppm | 29.2 ppm | 27.8 ppm | 20.2 ppm | 22.2 ppm | 13.2 ppm | 13.1 ppm | 18.4 ppm | 18.0 ppm | 14.0 ppm | Sulfide Remaining, Dose 2 6 ppm Chelant [1, 16]: 13.6 ppm; Sulfide Remaining, Dose 1 12 ppm Chelant [1, 17]: 10.4 ppm; Sulfide Remaining, Dose 2 6 ppm Chelant [1, 17]: 11.2 ppm; Sulfide Remaining, Dose 4 Chelant Only [1, 18]: 24.7 ppm |
| ferric gluconate [Fe-GLC] | 83.1 | 70.8 | 97.4 | 94.8 | noticeably better | 90% | 98 CFUs/ml | 28 CFUs/ml | 22,600 CFUs/ml | better than peroxide alone | 43.0 ppm | 18.6 ppm | 23.5 ppm | 5.6 ppm | 7.3 ppm | 1.1 ppm | 2.2 ppm | 14.2 ppm | 15.9 ppm | 7.3 ppm | sulfide reduction after 15 minutes [1]: 86.8%; sulfide treatment after 15 minutes [1]: 70%; Sulfide Remaining, Dose 2 6 ppm Chelant [1, 16]: 11.5 ppm; Sulfide Remaining, Dose 1 12 ppm Chelant [1, 17]: 4.3 ppm; Sulfide Remaining, Dose 2 6 ppm Chelant [1, 17]: 7.4 ppm; Sulfide Remaining, Dose 4 Chelant Only [1, 18]: 24.9 ppm; Fecal Coliform [5]: no detectable CFUs; effect on 2,4-D, in words [6]: substantially reduced; sulfide remaining [2, 12]: 3.40 ppm; sulfide remaining [2, 13]: 2.80 ppm; sulfide remaining [2, 14]: 1.40 ppm; Overall total percentage of sulfide reduction ([2]; listed as Fe-Gluconate): 90% |
